Reference: patent US10023587B2, “Oxabicycloheptanes and oxabicycloheptenes, their preparation and use” (LIXTE BIOTECHNOLOGY, INC., priority 2007, dated 2018)
Like-named read-outs stand apart in the source and are kept apart here.

Columns and labels:
[1] = test system: HepG2 cells; assay: CellTiter-Glo assay, HepG2; assay type: cell-based; conditions: Homo sapiens; HepG2 Liver, 72 hr; read-out: IC50 (50% Inhibition of Proliferation)
Description: (§1) MDA-MB-231, HT-29, NCI-H460, NCI-H522, NCI-H69, GXF-209, HepG2, OVAR-3, PANC-1, DU-145, LNCAP, HL-60, K-562, and MOLT-4 cell lines were either obtained from the American Type Culture Collection (ATCC; Manassas, Va.), or from the National Cancer Institute (NCI; Frederick, Md.). RPMI-1640 media, L-glutamine dipeptide (HyQ SG-200), and HEPES were obtained from Hyclone (Logan, Utah).
(§2) All cell lines were routinely cultured twice weekly in RPMI-1640 medium supplemented with 2 mM L-glutamine dipeptide, 10 mM HEPES, and 10% FBS.
(§3) The adherent cell lines MDA-MB-231, HT-29, NCI-H460, NCI-H522, GXF-209, HepG2, OVAR-3, PANC-1, DU-145, and LNCAP cells were each seeded into two 96-well plates at 2,500 cells per well in a total volume of 50 uL and incubated in a 37° C. humidified 5% CO2 cell culture incubator overnight. The suspension cell lines NCI-H69, HL-60, K-562, and MOLT-4 were each seeded into two 96-well plates at 10,000 cell per well in a total volume of 50 uL and incubated in a 37° C. humidified 5% CO2 incubator overnight.
(§4) This was followed by making 2× stocks of the final concentrations required in RPMI-1640 medium. […]
(§5) Briefly, plates were removed from the incubator and placed on the bench at room temperatures for 30 minutes. […] Luminescence was then recorded using the PerkinElmer Microbeta scintillation and luminescence counter (Trilux).

[2] = test system: PANC-1 cells; assay: CellTiter-Glo assay, PANC-1; assay type: cell-based; conditions: Homo sapiens; PANC-1 Pancreas, 72 hr; read-out: IC50 (50% Inhibition of Proliferation)
Description: as §1, §2, §3, §4, §5

[3] = test system: HL-60 cells; assay: CellTiter-Glo assay, HL-60; assay type: cell-based; conditions: Homo sapiens; HL-60 Leukemia promyelocytic, 72 hr; read-out: IC50 (50% Inhibition of Proliferation)
Description: as §1, §2, §3, §4, §5

[4] = test system: K-562 cells; assay: CellTiter-Glo assay, K-562; assay type: cell-based; conditions: Homo sapiens, K562; K-562 Leukemia chronic myelo, 72 hr; read-out: IC50 (50% Inhibition of Proliferation)
Description: as §1, §2, §3, §4, §5

[5] = test system: CP Control; assay: Antifungal susceptibility testing (broth dilution), CP Control; assay type: cell-based; conditions: read-out: minimum inhibitory concentration (MIC)
Description: (§6) Anti-fungal testing was completed with a common lot for compounds 100 and 102.
(§7) A 10 mg portion of each powder was weighed out and added to 1 ml of sterile distilled water for compound 100 and DMSO for compound 102. The resulting concentration of […] was diluted to a working concentration of 640 μg/ml for each compound. All subsequent dilutions were also made using the respective diluents. Final testing concentrations ranged from 0.125-64 μg/ml.
(§8) A total of 23 isolates were tested to include 3 Candida albicans, 3 Candida glabrata, 3 Cryptococcus neoformans, 3 Aspergillus fumigatus, 3 Rhizopus oryzae, 3, Fusarium solani, 3 Pseudallescheria boydii, and 2 […] rubrum. All isolates were clinical isolates submitted to the Fungus Testing Laboratory for evaluation. Antifungal susceptibility testing was accomplished according to the methods outlined in the National Committee for Clinical Laboratory Standards, M-27A2, Reference Method for Broth Dilution Antifungal Susceptibility Testing of Yeasts; Approved Standard, and M38-A “Reference Method for Broth Dilution Antifungal Susceptibility Testing of Conidium-Forming Filamentous Fungi; Approved Standard”. This includes testing in RPMI-1640 with glutamine and without bicarbonate, an inoculum size of 0.5-2.5×10^3 for yeasts or 1-5×10^4 for moulds, and incubation at 35° C. for 24 and 48 hours.

[6] = test system: C. glabrata; assay: Antifungal susceptibility testing (broth dilution), C. glabrata; assay type: cell-based, Candida glabrata; conditions: for MIC: Nakaseomyces glabratus, read-out: minimum inhibitory concentration (MIC)
Description: as §6, §7, §8

[7] = test system: A. fumigatus; assay: Antifungal susceptibility testing (broth dilution), A. fumigatus; assay type: cell-based, Aspergillus fumigatus; conditions: for MIC: Aspergillus fumigatus, read-out: minimum inhibitory concentration (MIC)
Description: as §6, §7, §8

[8] = Solubility (water, lipid); assay type: physicochemical
[9] = test system: GBM cell line U373; assay: cells; assay type: cell-based, human; conditions: for Percent of Control, Observed: U373 (Table 4)
Description: To observe the effects Compound 100 in combination with retinoic acids, Compound 100 was combined with all-trans retinoic acid. […] The total number of cells is counted in the triplicate cultures at each dose and in controls after 7 days and the average number of cells and the standard deviation is determined.
The amount of inhibition of GBM cell growth is expressed as the proportion of the number of cells in the experimental dishes compared to the number of cells in control dishes containing only the drug vehicle and culture medium. The average percent of control is plotted and bracketed by one standard deviation calculated from the triplicate measurements.
Synergism (potentiation) of the inhibitory activity of two drugs in combination is said to be present when the percent survival in the presence of two drugs is less than the product of the percent survivals of the two drugs used alone at the same doses in the combination.

[10] = Stability at acid pH; assay type: physicochemical

Compound: CC(C)(C)OC(=O)N1CCN(C(=O)C2C(C(=O)O)[C@H]3CC[C@@H]2O3)CC1 (stereo in doubt) [Compound 102, 4-(3-Carboxy-7oxa-bicyclo[2.2.1]heptane-2-carbonyl)piperazine-1-carboxylic acid tert-butyl ester]
- IC50 [1]: 22.1 µM
- IC50 [2]: 20.7 µM
- IC50 [3]: 6.5 µM
- IC50 [4]: 13.7 µM
- MIC ([5]; 24 Hours): > 64 µg/mL
- MIC ([5]; 48 Hours): > 64 µg/mL
- MIC ([6]; isolate 07-2964, 24 Hours): > 64 µg/mL
- MIC ([6]; isolate 07-2964, 48 Hours): > 64 µg/mL
- minimum inhibitory concentration (MIC) ([6]; isolate 07-2965, 24 Hours): >64 µg/mL
- minimum inhibitory concentration (MIC) ([6]; isolate 07-2965, 48 Hours): >64 µg/mL
- minimum inhibitory concentration (MIC) ([6]; isolate 07-3013, 24 Hours): >64 µg/mL
- minimum inhibitory concentration (MIC) ([6]; isolate 07-3013, 48 Hours): >64 µg/mL
- MIC ([7]; isolate 05-388, 24 Hours): > 64 µg/mL
- MIC ([7]; isolate 05-388, 48 Hours): > 64 µg/mL
- minimum inhibitory concentration (MIC) ([7]; isolate 06-4126, 24 Hours): >64 µg/mL
- minimum inhibitory concentration (MIC) ([7]; isolate 06-4126, 48 Hours): >64 µg/mL
- minimum inhibitory concentration (MIC) ([7]; isolate 07-2039, 24 Hours): >64 µg/mL
- minimum inhibitory concentration (MIC) ([7]; isolate 07-2039, 48 Hours): >64 µg/mL
- Lipid solubility (in words) [8]: lipid soluble

Compound: CN1CCN(C(=O)C2C(C(=O)O)[C@H]3CC[C@@H]2O3)CC1 (stereo partly drawn) [Compound 100, Endothall 4-Methylpiperazine Monoamide]
- Percent of Control, Observed ([9]; Compound 100 1 μM): 97.9 +/− 1.0% of Control
- Percent of Control, Observed ([9]; Compound 100 5 μM): 52.5 +/− 2.9% of Control
- activity at 1 µM ([9]; Homo sapiens, U373 MG, 168 h, Compound 100 1 uM, U373, 7 days (Table 3), read-out: Percent of Control, Observed): 78%
- IC50 [1]: 31.6 µM
- IC50 [2]: 25.1 µM
- IC50 [3]: 7.7 µM
- IC50 [4]: 10.7 µM
- MIC ([5]; 24 Hours): > 64 µg/mL
- MIC ([5]; 48 Hours): > 64 µg/mL
- MIC ([6]; 24 h): > 64 µg/mL
- MIC ([6]; 48 h): > 64 µg/mL
- minimum inhibitory concentration (MIC) ([6]; isolate 07-2965, 24 Hours): >64 µg/mL
- minimum inhibitory concentration (MIC) ([6]; isolate 07-2965, 48 Hours): >64 µg/mL
- minimum inhibitory concentration (MIC) ([6]; isolate 07-3013, 24 Hours): >64 µg/mL
- minimum inhibitory concentration (MIC) ([6]; isolate 07-3013, 48 Hours): >64 µg/mL
- MIC ([7]; 24 h): > 64 µg/mL
- MIC ([7]; 48 h): > 64 µg/mL
- minimum inhibitory concentration (MIC) ([7]; isolate 06-4126, 24 Hours): >64 µg/mL
- minimum inhibitory concentration (MIC) ([7]; isolate 06-4126, 48 Hours): >64 µg/mL
- minimum inhibitory concentration (MIC) ([7]; isolate 07-2039, 24 Hours): >64 µg/mL
- minimum inhibitory concentration (MIC) ([7]; isolate 07-2039, 48 Hours): >64 µg/mL
- Water solubility (in words) ([8]; own compounds): water soluble
- Stability at acid pH (in words) [10]: stable at acid pH
